Read-outs that look alike come from different tables or passages of the source.
Tests used:
MET1 cells [1] = experiment: Cytotoxicity (resazurin cell viability) in MET1 cells; type: cell-based, human
From the text: (§1) The MET1 SCC cell line (human squamous cell carcinoma) was obtained from Ximbio (London, UK), HaCaT (immortalized human keratinocytes cell line) was obtained from Addexbio (San Diego, CA, USA) and WM983b (human metastatic melanoma cell line) was obtained from Rockland (Pottstown, PA, USA). Cells were maintained in Dulbecco’s Modified Eagle Medium (DMEM) supplemented with 10% (v/v) fetal bovine serum (FBS) for MET1 and HaCaT and 5% (v/v) for WM983b cells, and Pen–Strep (penicillin 100 U/mL and streptomycin 100 µg/mL). Cells were cultivated in an incubator (Sanyo MCO-19AIC-UV) at 37 °C in a 5% CO2 humidified atmosphere.
(§2) First, 96-well plates were seeded with HaCaT and MET1 cells at a density of 20,000 cells/cm² and incubated for 24 h. After that period, the culture medium was replaced by culture medium containing different compounds: MB, AO, GV, QT, CUR, EGCG, PHE, NEO and BIPY. The compounds were diluted in culture medium using a range of concentrations of each compound from 1.25 µM to 320 µM (in quadruplicate). The medium was aspirated from the 96-well plate and replaced by the samples diluted in medium. Cells cultured with complete medium and cells cultured with medium supplemented with 0.2% (v/v) or 10% (v/v) of DMSO were used as negative (NC), solvent (SC) and positive controls (PC), respectively. The plates were incubated for 24 and 48 h, followed by evaluation of cell viability using a colorimetric assay. Cells containing samples were washed with PBS supplemented with calcium and magnesium; then, resazurin solution diluted in DMEM at 0.02 mg/mL was added. The medium containing resazurin was also dispensed in wells without cells, which were used as references. After 3 h of incubation, the absorbance was measured in a microplate reader (ELX800UV, Biotek Instruments) at wavelengths of 570 nm and 600 nm. The corrected absorbance was proportional to cell viability. Propagation of uncertainties was used to calculate the combined standard uncertainty. For the cytotoxicity study using WM983b cells, plates were seeded at a density of 40,000 cells/cm², and cells were treated only with MB and AO.

MET1 cells [2] = experiment: Phototoxicity assay in MET1 cells (irradiation 2.5 J/cm², resazurin); type: cell-based, human; conditions: for phototoxicity in the investigated range: 1.25-40 µM, irradiated vs dark
Procedure: (§3) The […] SCC cell line (human squamous cell carcinoma) was obtained from Ximbio (London, UK), HaCaT (immortalized human keratinocytes cell line) was obtained from Addexbio (San Diego, CA, USA) and WM983b (human metastatic melanoma cell line) was obtained from Rockland (Pottstown, PA, USA). […] Cells were cultivated in an incubator (Sanyo MCO-19AIC-UV) at 37 °C in a 5% CO2 humidified atmosphere. […] The plates were incubated for 24 h, followed by washing with PBS supplemented with calcium and magnesium. Afterwards, complete culture medium without phenol red was added, and the plates were irradiated from above and submitted to a dose of 2.5 J/cm2 of irradiation emitted by different wavelength light sources coupled with a homemade irradiation system created in our laboratory. […] This experiment was performed in an incubator that was able to keep plates in a dark environment; therefore, the dark control plates were protected from any light source, as well as the others, with the exception of the irradiation that each one was submitted to. Plates were incubated for another 24 h, and finally, the resazurin assay was performed as previously described in Section 3.3. For the phototoxicity study using WM983b cells, plates were prepared at a cell density of 40,000 cells/cm2, and cells were treated with MB and AO only.

HaCaT cells = experiment: Cytotoxicity (resazurin cell viability) in HaCaT cells; type: cell-based, human
From the text: as §1, §2

[3] = Phototoxicity assay in MET1 cells (irradiation 2.5 J/cm², resazurin); type: cell-based, human; conditions: human, MET1 squamous cell carcinoma cells, MET1 cells, dark
Procedure: as §3

WM983b cells [4] = experiment: Cytotoxicity (resazurin cell viability) in WM983b cells; type: cell-based, human; conditions: for IC50: Homo sapiens, 1.25-320 µM
From the text: as §1, §2

WM983b cells [5] = experiment: Phototoxicity assay in WM983b cells (irradiation 2.5 J/cm², resazurin); type: cell-based; conditions: Homo sapiens, light or radiation study, treated 24 h
From the text: as §1
For the phototoxicity studies, 96-well plates were seeded with MET1 cells at a density of 20,000 cells/cm², incubated overnight and treated for 24 h with MB, AO, GV, QT, CUR, EGCG, PHE, NEO and BIPY diluted in culture medium in a concentration range of 1.25 µM to 40 µM (in sextuplicate). […] Cells cultured with complete medium and cells cultured with medium supplemented with 0.2% (v/v) or 10% (v/v) of DMSO were used as negative (NC), solvent (SC) and positive control (PC), respectively. The plates were incubated for 24 h, followed by washing with PBS supplemented with calcium and magnesium. Afterwards, complete culture medium without phenol red was added, and the plates were irradiated from above and submitted to a dose of 2.5 J/cm² of irradiation emitted by different wavelength light sources coupled with a homemade irradiation system created in our laboratory. These light sources consisted of an equivalent 26 cm UV tubular lamp (254 nm) (Phillips TUV PLS 9W/2PHg) and a tricolor LED lamp (Led Grow Light Bulb E26/E27) with intensity peaks at 457 nm (blue light), 583 nm (yellow light) and 640 nm (red light) provided by 18, 18 and 28 LEDs, respectively, with dimensions of 3 × 3 mm^2. The irradiance values of light at 254, 457, 583 and 640 nm wavelengths were of 16.7, 55, 45 and 25 W/m^2, respectively. This experiment was performed in an incubator that was able to keep plates in a dark environment; therefore, the dark control plates were protected from any light source, as well as the others, with the exception of the irradiation that each one was submitted to. Plates were incubated for another 24 h, and finally, the resazurin assay was performed as previously described in Section 3.3. For the phototoxicity study using WM983b cells, plates were prepared at a cell density of 40,000 cells/cm², and cells were treated with MB and AO only.

[6] = Homo sapiens, MET-1, MET1 cells, 24 h exposure, 1.25-320 µM, read-out: IC50 MET1 Cells 24 h
[7] = Homo sapiens, MET-1, MET1 cells, 48 h exposure, 1.25-320 µM, read-out: IC50 MET1 Cells 48 h
[8] = Homo sapiens, MET-1, MET1 cells, exposure time not given, read-out: IC50 in MET1 cells (summary statement)
[9] = Homo sapiens, MET-1, light or radiation study, MET1 cells, treated 24 h, 254 nm light, 2.5 J/cm², read-out: IC50 254 nm
[10] = Homo sapiens, MET-1, light or radiation study, MET1 cells, treated 24 h, 457 nm light, 2.5 J/cm², read-out: IC50 457 nm
[11] = Homo sapiens, MET-1, light or radiation study, MET1 cells, treated 24 h, 583 nm light, 2.5 J/cm², read-out: IC50 583 nm
[12] = Homo sapiens, MET-1, light or radiation study, MET1 cells, treated 24 h, 640 nm light, 2.5 J/cm², read-out: IC50 640 nm
[13] = Homo sapiens, MET-1, light or radiation study, MET1 cells, treated 24 h, dark control (no irradiation), read-out: IC50 Dark
[14] = Homo sapiens, HaCaT cells, 24 h exposure, 1.25-320 µM, read-out: IC50 HaCaT Cells 24 h
[15] = Homo sapiens, HaCaT cells, 48 h exposure, 1.25-320 µM, read-out: IC50 HaCaT Cells 48 h
[16] = Homo sapiens, MET-1, light or radiation study, MET1 cells, light condition not stated, read-out: IC50 phototoxicity results (summary statement)

Row | SMILES | IC50 (MET1 cells [1]; [6]) | IC50 (MET1 cells [1]; [7]) | IC50 (MET1 cells [1]; [8]) | IC50 (MET1 cells [2]; [9]) | IC50 (MET1 cells [2]; [10]) | IC50 (MET1 cells [2]; [11]) | IC50 (MET1 cells [2]; [12]) | IC50 (MET1 cells [2]; [13]) | IC50 (HaCaT cells; [14]) | IC50 (HaCaT cells; [15]) | further results
1 | c1cnc2c(c1)ccc1cccnc12 [1,10-phenanthroline] | 124 µM | 7.7 µM | > 100 µM | 6 µM | 4.9 µM | 6.8 µM | 4.8 µM | 7.4 µM | 35.2 µM | 5.9 µM | 
2 | c1ccc(-c2ccccn2)nc1 [2,2′-bipyridyl] |  |  |  |  |  |  |  |  |  |  | IC50 (MET1 cells [1]; Homo sapiens, MET-1, 24 h, read-out: IC50 MET1 Cells 24 h): 275 µM; IC50 (MET1 cells [1]; Homo sapiens, MET-1, 48 h, read-out: IC50 MET1 Cells 48 h): 97.2 µM; IC50 (MET1 cells [1]; Homo sapiens, MET-1, read-out: IC50 in MET1 cells (summary statement)): > 100 µM; IC50 (MET1 cells [2]; Homo sapiens, MET-1, light or radiation study, 24 h, read-out: IC50 254 nm): 225 µM; IC50 (MET1 cells [2]; Homo sapiens, MET-1, light or radiation study, 24 h, read-out: IC50 457 nm): 171 µM; IC50 (MET1 cells [2]; Homo sapiens, MET-1, light or radiation study, 24 h, read-out: IC50 583 nm): 190 µM; IC50 (MET1 cells [2]; Homo sapiens, MET-1, light or radiation study, 24 h, read-out: IC50 640 nm): 202 µM; IC50 (MET1 cells [2]; Homo sapiens, MET-1, light or radiation study, 24 h, read-out: IC50 Dark): 228 µM; IC50 (MET1 cells [2]; Homo sapiens, MET-1, light or radiation study, read-out: IC50 phototoxicity results (summary statement)): > 100 µM; phototoxicity in the investigated range (MET1 cells [2]; MET1 cells): did not show phototoxicity; IC50 (HaCaT cells; Homo sapiens, HaCaT, 24 h, read-out: IC50 HaCaT Cells 24 h): 125 µM; IC50 (HaCaT cells; Homo sapiens, HaCaT, 48 h, read-out: IC50 HaCaT Cells 48 h): 57.8 µM
3 | COc1cc(/C=C/C(=O)CC(=O)/C=C/c2ccc(O)c(OC)c2)ccc1O [Curcumin, curcumin] | 26 µM | 7.2 µM | < 30 µM | 9.3 µM | 10.7 µM | 11.5 µM | 11 µM | 15.5 µM | 9 µM | 11.7 µM | IC50 (MET1 cells [2]; Homo sapiens, MET-1, light or radiation study, MET1 cells, 640, 583, 457 and 254 nm, 2.5 J/cm², read-out: IC50 values under irradiation (all wavelengths together)): < 11.5 µM; IC50 (MET1 cells [2]; [16]): < 20 µM
4 | O=C(O[C@@H]1Cc2c(O)cc(O)cc2O[C@@H]1c1cc(O)c(O)c(O)c1)c1cc(O)c(O)c(O)c1 [Epigallocatechin gallate, epigallocatechin gallate] |  |  |  |  |  |  |  |  |  |  | IC50 (MET1 cells [1]; MET1 cells, 24 h exposure, 1.25-320 µM, read-out: IC50 MET1 Cells 24 h): 174 µM; IC50 (MET1 cells [1]; MET1 cells, 48 h exposure, 1.25-320 µM, read-out: IC50 MET1 Cells 48 h): 136 µM; phototoxicity in the investigated range (MET1 cells [2]; MET1 cells): no phototoxicity was observed; IC50 (MET1 cells [2]; MET1 cells, light condition not stated, read-out: IC50 phototoxicity results (summary statement)): > 100 µM; IC50 (MET1 cells [2]; MET1 cells, treated 24 h, 254 nm light, 2.5 J/cm², read-out: IC50 254 nm): 193 µM; IC50 (MET1 cells [2]; MET1 cells, treated 24 h, 457 nm light, 2.5 J/cm², read-out: IC50 457 nm): 222 µM; IC50 (MET1 cells [2]; MET1 cells, treated 24 h, 583 nm light, 2.5 J/cm², read-out: IC50 583 nm): 211 µM; IC50 (MET1 cells [2]; MET1 cells, treated 24 h, 640 nm light, 2.5 J/cm², read-out: IC50 640 nm): 224 µM; IC50 (MET1 cells [2]; MET1 cells, treated 24 h, dark control (no irradiation), read-out: IC50 Dark): 191 µM; IC50 (HaCaT cells; HaCaT cells, 24 h exposure, 1.25-320 µM, read-out: IC50 HaCaT Cells 24 h): 211 µM; IC50 (HaCaT cells; HaCaT cells, 48 h exposure, 1.25-320 µM, read-out: IC50 HaCaT Cells 48 h): 174 µM
5 | CN(C)c1ccc(C(=C2C=CC(=[N+](C)C)C=C2)c2ccc(N(C)C)cc2)cc1 [Gentian violet, gentian violet] | 3.9 µM | 1.2 µM |  | 1.5 µM | 2.7 µM | 1 µM | 1.8 µM | 2.9 µM | 2.8 µM | 0.9 µM | viability at 24 h, 1.25 µM ([3]; 1.25 µM, read-out: relative cell viability, dark condition, lowest concentration): < 60%
6 | CN(C)c1ccc2nc3ccc(=[N+](C)C)cc-3sc2c1 [Methylene blue, methylene blue] | 14.2 µM | 4.2 µM |  | 4.3 µM | 6.2 µM | 5 µM | 3.8 µM | 10.9 µM | 11.6 µM | 7.1 µM | concentration above which the relative cell population falls below 70% (WM983b cells [4]; 24 or 48 h): above 10 µM; IC50 (WM983b cells [4]; 24 h exposure, read-out: IC50 WM983b cells 24 h): 18 µM; IC50 (WM983b cells [4]; 48 h exposure, read-out: IC50 WM983b cells 48 h): 6.1 µM; IC50 (WM983b cells [5]; 640 nm light, 2.5 J/cm², read-out: IC50 irradiated samples (640 nm)): 2.1 µM; IC50 (WM983b cells [5]; without irradiation, read-out: IC50 non-irradiated samples): 7.3 µM
7 | Cc1ccc2ccc3ccc(C)nc3c2n1 [Neocuproine, neocuproine] | > 320 µM | > 320 µM |  |  |  |  |  |  | > 320 µM | 159 µM | viability at 24 h ([3]; 1.25-40 µM, read-out: cell viability under dark conditions): < 70%
8 | O=c1c(O)c(-c2ccc(O)c(O)c2)oc2cc(O)cc(O)c12 [Quercetin, quercetin] | > 320 µM | 110 µM | > 100 µM | 205 µM | 288 µM | 269 µM | 340 µM | 230 µM | > 320 µM | 315 µM | IC50 (MET1 cells [2]; [16]): > 100 µM

From publication PMC10054552, “Phototoxic Potential of Different DNA Intercalators for Skin Cancer Therapy: In Vitro Screening” (International Journal of Molecular Sciences, 2023)
